Laboratory results from article PMC5218480 (PLoS ONE, 2017).

System: MV-4-11 cells
Test: Gene expression microarray analysis (Affymetrix PrimeView) and GSEA
Format: cell-based, human
Set-up: RFU PODN (11730768_x_at) / Fold change /veh PODN (11730768_x_at) / RFU LINC00158 (11744669_a_at) / Fold change /veh LINC00158 (11744669_a_at) / RFU DUSP10 (11751237_a_at) / Fold change /veh DUSP10 (11751237_a_at) / RFU ID3 (11757404_x_at) / Fold change /veh ID3 (11757404_x_at) / RFU PLEKHG5 (11737974_s_at) / Fold change /veh PLEKHG5 (11737974_s_at) / RFU LRRC4B (11730491_at) / Fold change /veh LRRC4B (11730491_at) / RFU GIMAP4 (11747438_a_at) / Fold change /veh GIMAP4 (11747438_a_at) / RFU KRT8 (11758183_x_at) / Fold change /veh KRT8 (11758183_x_at) / RFU CNN1 (11734310_a_at) / Fold change /veh CNN1 (11734310_a_at) / RFU VPS37D (11726825_at) / Fold change /veh VPS37D (11726825_at) / RFU C10orf10 (11716522_x_at) / Fold change /veh C10orf10 (11716522_x_at) / RFU KIR2DL2 /// KIR2DL4 /// KIR2DL5A /// KIR2DL5B /// KIR2DS1 /// KIR2DS2 /// KIR2DS3 /// KIR2DS4 /// KIR3DL3 /// KIR3DL3 /// KIR3DS1 (11738374_at) / Fold change /veh KIR2DL2 /// KIR2DL4 /// KIR2DL5A /// KIR2DL5B /// KIR2DS1 /// KIR2DS2 /// KIR2DS3 /// KIR2DS4 /// KIR3DL3 /// KIR3DL3 /// KIR3DS1 (11738374_at) / RFU C1QL1 (11718748_at) / Fold change /veh C1QL1 (11718748_at) / RFU TMPRSS4 (11747572_a_at) / Fold change /veh TMPRSS4 (11747572_a_at) / RFU HAMP (11756126_x_at) / Fold change /veh HAMP (11756126_x_at) / RFU RNFT2 (11725882_a_at) / Fold change /veh RNFT2 (11725882_a_at) / RFU NR4A2 (11747474_a_at) / Fold change /veh NR4A2 (11747474_a_at) / RFU ABCC12 (11746883_a_at) / Fold change /veh ABCC12 (11746883_a_at) / RFU TMEM136 (11760407_x_at) / Fold change /veh TMEM136 (11760407_x_at) / RFU CLDN22 /// WWC2 (11732394_at) / Fold change /veh CLDN22 /// WWC2 (11732394_at) / RFU HLA-DPB1 (11760878_x_at) / Fold change /veh HLA-DPB1 (11760878_x_at) / RFU SPINT1 (11716480_a_at) / Fold change /veh SPINT1 (11716480_a_at) / RFU GAP43 (11754022_s_at) / Fold change /veh GAP43 (11754022_s_at) / RFU A4GNT (11735810_at) / Fold change /veh A4GNT (11735810_at) / RFU PRB3 (11715151_x_at) / Fold change /veh PRB3 (11715151_x_at) / RFU TUBB4B (11761932_at) / Fold change /veh TUBB4B (11761932_at) / RFU CAPN14 (11732068_a_at) / Fold change /veh CAPN14 (11732068_a_at) / RFU TMCC2 (11721928_a_at) / Fold change /veh TMCC2 (11721928_a_at) / RFU IRGQ (11745062_a_at) / Fold change /veh IRGQ (11745062_a_at) / RFU FAM174B (11720279_a_at) / Fold change /veh FAM174B (11720279_a_at) / RFU TMPRSS4 (11748680_a_at) / Fold change /veh TMPRSS4 (11748680_a_at) / RFU FAM212B (11763350_a_at) / Fold change /veh FAM212B (11763350_a_at) / RFU PLEKHG5 (11743358_a_at) / Fold change /veh PLEKHG5 (11743358_a_at) / RFU ZSCAN30 (11745921_a_at) / Fold change /veh ZSCAN30 (11745921_a_at) / RFU CMKLR1 (11741424_a_at) / Fold change /veh CMKLR1 (11741424_a_at) / RFU LOC101060620 /// MAPK8IP1 (11723275_at) / Fold change /veh LOC101060620 /// MAPK8IP1 (11723275_at) / RFU SPTSSB (11747773_x_at) / Fold change /veh SPTSSB (11747773_x_at) / RFU PRSS12 (11739890_at) / Fold change /veh PRSS12 (11739890_at) / RFU BIN1 (11741810_x_at) / Fold change /veh BIN1 (11741810_x_at) / RFU WNT11 (11732464_a_at) / Fold change /veh WNT11 (11732464_a_at) / RFU C10orf10 (11716521_a_at) / Fold change /veh C10orf10 (11716521_a_at) / RFU C5orf56 (11738089_at) / Fold change /veh C5orf56 (11738089_at) / RFU CYB561 (11721691_x_at) / Fold change /veh CYB561 (11721691_x_at) / RFU ANKRD19P (11752326_a_at) / Fold change /veh ANKRD19P (11752326_a_at) / RFU OR2T12 /// OR2T33 /// OR2T8 (11738714_s_at) / Fold change /veh OR2T12 /// OR2T33 /// OR2T8 (11738714_s_at) / RFU VCAN (11748164_a_at) / Fold change /veh VCAN (11748164_a_at) / RFU JSRP1 (11732532_at) / Fold change /veh JSRP1 (11732532_at) / RFU KRTAP10-11 (11738290_x_at) / Fold change /veh KRTAP10-11 (11738290_x_at) / RFU MYO3A (11730013_a_at) / Fold change /veh MYO3A (11730013_a_at) / RFU EBF3 (11725865_a_at) / Fold change /veh EBF3 (11725865_a_at) / RFU CAMK2N1 (11719241_x_at) / Fold change /veh CAMK2N1 (11719241_x_at) / RFU C5orf56 (11738088_a_at) / Fold change /veh C5orf56 (11738088_a_at) / RFU OLFML3 (11715873_a_at) / Fold change /veh OLFML3 (11715873_a_at) / RFU LOC100653217 /// NTM (11731650_a_at) / Fold change /veh LOC100653217 /// NTM (11731650_a_at) / RFU MAPK11 (11762145_a_at) / Fold change /veh MAPK11 (11762145_a_at) / RFU FIZ1 (11724087_x_at) / Fold change /veh FIZ1 (11724087_x_at) / RFU OASL (11726364_x_at) / Fold change /veh OASL (11726364_x_at) / RFU SOX15 (11748057_x_at) / Fold change /veh SOX15 (11748057_x_at) / RFU CD79A (11719716_a_at) / Fold change /veh CD79A (11719716_a_at) / RFU HIST1H1D (11736915_at) / Fold change /veh HIST1H1D (11736915_at) / RFU CASKIN2 (11723855_a_at) / Fold change /veh CASKIN2 (11723855_a_at) / RFU LOC730098 (11760151_x_at) / Fold change /veh LOC730098 (11760151_x_at) / RFU OR4N2 (11742367_at) / Fold change /veh OR4N2 (11742367_at) / RFU PRRT2 (11749266_a_at) / Fold change /veh PRRT2 (11749266_a_at) / RFU SNX32 (11753110_a_at) / Fold change /veh SNX32 (11753110_a_at) / RFU CDHR5 (11726645_a_at) / Fold change /veh CDHR5 (11726645_a_at) / RFU RCAN1 (11760418_a_at) / Fold change /veh RCAN1 (11760418_a_at) / RFU FAM167A (11723789_a_at) / Fold change /veh FAM167A (11723789_a_at) / RFU FAM26E (11764081_at) / Fold change /veh FAM26E (11764081_at) / RFU ISYNA1 (11749810_s_at) / Fold change /veh ISYNA1 (11749810_s_at) / RFU ACY1 (11761880_at) / Fold change /veh ACY1 (11761880_at) / RFU 11764098_at / Fold change /veh 11764098_at / RFU SAMD14 (11745864_x_at) / Fold change /veh SAMD14 (11745864_x_at) / RFU NPB (11741838_a_at) / Fold change /veh NPB (11741838_a_at) / RFU TMPRSS6 (11731388_a_at) / Fold change /veh TMPRSS6 (11731388_a_at) / RFU KRTAP10-2 (11738614_at) / Fold change /veh KRTAP10-2 (11738614_at) / RFU ARHGAP8 /// PRR5-ARHGAP8 (11727945_x_at) / Fold change /veh ARHGAP8 /// PRR5-ARHGAP8 (11727945_x_at) / RFU KRTAP5-7 /// NADSYN1 (11734609_at) / Fold change /veh KRTAP5-7 /// NADSYN1 (11734609_at) / RFU RASL12 (11751679_a_at) / Fold change /veh RASL12 (11751679_a_at) / RFU CDKN2B (11736163_a_at) / Fold change /veh CDKN2B (11736163_a_at) / RFU PRF1 (11729649_at) / Fold change /veh PRF1 (11729649_at) / RFU, ZNF638 /// ZNF638-IT1 / Fold change vs veh, ZNF638 /// ZNF638-IT1 / RFU, PANK3 / Fold change vs veh, PANK3 / RFU, SH3YL1 / Fold change vs veh, SH3YL1 / RFU, ZEB2 / Fold change vs veh, ZEB2 / RFU, NRIP1 / Fold change vs veh, NRIP1 / RFU, PTTG1IP / Fold change vs veh, PTTG1IP / RFU, CAPN2 / Fold change vs veh, CAPN2 / RFU, MED14 / Fold change vs veh, MED14 / RFU, SNORA58 / Fold change vs veh, SNORA58 / RFU, C1orf63 / Fold change vs veh, C1orf63 / RFU, LRRFIP1 / Fold change vs veh, LRRFIP1 / RFU, NDUFAF7 / Fold change vs veh, NDUFAF7 / RFU, SLC12A2 / Fold change vs veh, SLC12A2 / RFU, IBTK / Fold change vs veh, IBTK / RFU, ESF1 / Fold change vs veh, ESF1 / Fold change vs veh, TMEM50B / RFU, TAOK1 / Fold change vs veh, TAOK1 / RFU, ACBD3 / Fold change vs veh, ACBD3 / RFU, TMA16 / Fold change vs veh, TMA16 / RFU, RWDD3 / Fold change vs veh, RWDD3 / RFU, BCAT1 / Fold change vs veh, BCAT1 / RFU, EDEM3 / Fold change vs veh, EDEM3 / RFU, TMEM33 / Fold change vs veh, TMEM33 / RFU, WDR75 / Fold change vs veh, WDR75 / RFU, AHCTF1 / Fold change vs veh, AHCTF1 / RFU, TFRC / Fold change vs veh, TFRC / RFU, ZDHHC17 / Fold change vs veh, ZDHHC17 / RFU, NOM1 / Fold change vs veh, NOM1 / RFU, ARL8B / Fold change vs veh, ARL8B / RFU, ZBTB11 / Fold change vs veh, ZBTB11 / RFU, TAMM41 / Fold change vs veh, TAMM41 / RFU, KIAA1704 /// LOC100996395 / Fold change vs veh, KIAA1704 /// LOC100996395 / RFU, ING1 / Fold change vs veh, ING1 / RFU, TRMT61B / Fold change vs veh, TRMT61B / RFU, FUBP3 / Fold change vs veh, FUBP3 / RFU, TP53 / Fold change vs veh, TP53 / RFU, TNKS2 / Fold change vs veh, TNKS2 / RFU, ZFP14 / Fold change vs veh, ZFP14 / RFU, ACTR2 / Fold change vs veh, ACTR2 / RFU, PPP3R1 / Fold change vs veh, PPP3R1 / RFU, PIK3R1 / Fold change vs veh, PIK3R1 / RFU, HNRNPA1 / Fold change vs veh, HNRNPA1 / RFU, RNF170 / Fold change vs veh, RNF170 / RFU, ZNF28 / Fold change vs veh, ZNF28 / RFU, RNGTT / Fold change vs veh, RNGTT / RFU, OGT / Fold change vs veh, OGT / RFU, BRD1 / Fold change vs veh, BRD1 / RFU, MARS / Fold change vs veh, MARS / RFU, ZNF655 / Fold change vs veh, ZNF655 / RFU, FAHD1 / Fold change vs veh, FAHD1 / RFU, BDP1 / Fold change vs veh, BDP1 / RFU, LRRCC1 / Fold change vs veh, LRRCC1 / RFU, ARID1A / Fold change vs veh, ARID1A / RFU, ZNF146 / Fold change vs veh, ZNF146 / RFU, ZNF330 / Fold change vs veh, ZNF330 / RFU, GPN3 / Fold change vs veh, GPN3 / RFU, C9orf123 / Fold change vs veh, C9orf123 / RFU, N4BP2L2 / Fold change vs veh, N4BP2L2 / RFU, ARFIP1 / Fold change vs veh, ARFIP1 / RFU, FAM179B / Fold change vs veh, FAM179B / RFU, BCL10 / Fold change vs veh, BCL10 / RFU, UHRF1BP1L / Fold change vs veh, UHRF1BP1L / RFU, BET1 / Fold change vs veh, BET1 / RFU, CNOT2 / Fold change vs veh, CNOT2 / RFU, ZNF268 / Fold change vs veh, ZNF268 / Fold change vs veh, ZNF507 / RFU, DGCR2 / Fold change vs veh, DGCR2 / RFU, WDSUB1 / Fold change vs veh, WDSUB1 / Fold change vs veh, HSP90B1 /// MIR3652 / RFU, ADSS / Fold change vs veh, ADSS / RFU, GK / Fold change vs veh, GK / RFU, ZNF148 / Fold change vs veh, ZNF148 / RFU, TAF9 / Fold change vs veh, TAF9 / RFU, SLC1A5 / Fold change vs veh, SLC1A5 / RFU, SLMO2 / Fold change vs veh, SLMO2 / RFU, ABCC4 / Fold change vs veh, ABCC4 / RFU, LOC101060439 /// RAP1B / Fold change vs veh, LOC101060439 /// RAP1B / RFU, RFX7 / Fold change vs veh, RFX7 / RFU, GTPBP10 / Fold change vs veh, GTPBP10 / RFU, CNEP1R1 / Fold change vs veh, CNEP1R1 / RFU, BIVM-ERCC5 /// ERCC5 / Fold change vs veh, BIVM-ERCC5 /// ERCC5 / RFU, ILF3 / Fold change vs veh, ILF3 / RFU 11762660_at / Fold change /veh 11762660_at / RFU VCAN (11757783_s_at) / Fold change /veh VCAN (11757783_s_at) / RFU DDX43 (11728927_at) / Fold change /veh DDX43 (11728927_at) / RFU KRT8 (11758188_x_at) / Fold change /veh KRT8 (11758188_x_at) / RFU NKD1 (11759106_at) / Fold change /veh NKD1 (11759106_at) / RFU SRD5A1 (11742802_a_at) / Fold change /veh SRD5A1 (11742802_a_at) / RFU TPSAB1 /// TPSB2 (11721975_s_at) / Fold change /veh TPSAB1 /// TPSB2 (11721975_s_at) / RFU GSTM3 (11746129_a_at) / Fold change /veh GSTM3 (11746129_a_at) / RFU IL23R (11737362_x_at) / Fold change /veh IL23R (11737362_x_at) / RFU TMEM51 (11727254_a_at) / Fold change /veh TMEM51 (11727254_a_at) / RFU PIWIL2 (11732686_x_at) / Fold change /veh PIWIL2 (11732686_x_at) / RFU ORM1 (11744905_x_at) / Fold change /veh ORM1 (11744905_x_at) / RFU CCDC152 (11743942_at) / Fold change /veh CCDC152 (11743942_at) / RFU ECM1 (11717891_a_at) / Fold change /veh ECM1 (11717891_a_at) / RFU IL23R (11748794_a_at) / Fold change /veh IL23R (11748794_a_at) / RFU TNFAIP8L3 (11732012_x_at) / Fold change /veh TNFAIP8L3 (11732012_x_at) / RFU MBOAT4 (11741988_at) / Fold change /veh MBOAT4 (11741988_at) / RFU 11764193_at / Fold change /veh 11764193_at / RFU TMEM53 (11763286_at) / Fold change /veh TMEM53 (11763286_at) / RFU MAGEB2 (11727129_at) / Fold change /veh MAGEB2 (11727129_at) / RFU TMEM200A (11744735_a_at) / Fold change /veh TMEM200A (11744735_a_at) / RFU CCDC152 (11751479_a_at) / Fold change /veh CCDC152 (11751479_a_at) / RFU FAM211A (11726209_a_at) / Fold change /veh FAM211A (11726209_a_at) / RFU RGS16 (11746705_a_at) / Fold change /veh RGS16 (11746705_a_at) / RFU VCAN (11755009_s_at) / Fold change /veh VCAN (11755009_s_at) / RFU RHOB (11743442_s_at) / Fold change /veh RHOB (11743442_s_at) / RFU RGS16 (11720943_a_at) / Fold change /veh RGS16 (11720943_a_at) / RFU RGS16 (11720944_at) / Fold change /veh RGS16 (11720944_at) / RFU, VPS4B / Fold change vs veh, VPS4B / RFU, CREB1 / Fold change vs veh, CREB1 / RFU, DNAJC13 / Fold change vs veh, DNAJC13 / RFU, GNAQ / Fold change vs veh, GNAQ / RFU, CDK5R1 / Fold change vs veh, CDK5R1 / RFU, ZRANB3 / Fold change vs veh, ZRANB3 / RFU, CUL4A / Fold change vs veh, CUL4A / RFU, CCNY / Fold change vs veh, CCNY / RFU, UFL1 / Fold change vs veh, UFL1 / RFU, COG3 / Fold change vs veh, COG3 / RFU, DIAPH2 / Fold change vs veh, DIAPH2 / RFU, SKA2 / Fold change vs veh, SKA2 / RFU, AFF3 / Fold change vs veh, AFF3 / RFU, LMF1 / Fold change vs veh, LMF1 / RFU, IPO11 / Fold change vs veh, IPO11 / RFU, DFFB / Fold change vs veh, DFFB / RFU, FOXP1 / Fold change vs veh, FOXP1 / RFU, CARD8 / Fold change vs veh, CARD8 / RFU, STRN3 / Fold change vs veh, STRN3 / RFU, ADK / Fold change vs veh, ADK / RFU, RASSF2 / Fold change vs veh, RASSF2 / RFU, WIPF1 / Fold change vs veh, WIPF1 / RFU, LARP1B / Fold change vs veh, LARP1B / RFU, RASA1 / Fold change vs veh, RASA1 / RFU, RB1 / Fold change vs veh, RB1 / RFU, PPFIA1 / Fold change vs veh, PPFIA1 / RFU, MAT2A / Fold change vs veh, MAT2A / RFU, CCT5 / Fold change vs veh, CCT5 / RFU, WDR92 / Fold change vs veh, WDR92 / RFU, CUX1 / Fold change vs veh, CUX1 / RFU, TTC7A / Fold change vs veh, TTC7A / RFU, TMEM135 / Fold change vs veh, TMEM135 / RFU, DEPTOR / Fold change vs veh, DEPTOR / RFU, CPM / Fold change vs veh, CPM / RFU, DNAJB6 / Fold change vs veh, DNAJB6 / RFU, CACNA2D3 / Fold change vs veh, CACNA2D3 / RFU, DTX4 / Fold change vs veh, DTX4 / RFU, TFCP2 / Fold change vs veh, TFCP2 / RFU, GMCL1 /// GMCL1P1 / Fold change vs veh, GMCL1 /// GMCL1P1 / RFU, AEBP2 / Fold change vs veh, AEBP2 / RFU, SNHG1 /// SNORD22 /// SNORD25 /// SNORD26 /// SNORD27 /// SNORD28 /// SNORD29 /// SNORD31 / Fold change vs veh, SNHG1 /// SNORD22 /// SNORD25 /// SNORD26 /// SNORD27 /// SNORD28 /// SNORD29 /// SNORD31 / Fold change (Aza/veh), C12orf56 (ProbeSet 11735607_a_at) / Fold change (ACY-1035/veh), C12orf56 (ProbeSet 11735607_a_at) / Fold change (Aza/veh), FGFR1OP (ProbeSet 11751329_s_at) / Fold change (ACY-1035/veh), FGFR1OP (ProbeSet 11751329_s_at) / Fold change (Aza/veh), VPS36 (ProbeSet 11739960_a_at) / Fold change (ACY-1035/veh), VPS36 (ProbeSet 11739960_a_at) / RFU SYPL1 (11715823_x_at) / Fold change /veh SYPL1 (11715823_x_at) / RFU IGFBP7 (11715501_s_at) / Fold change /veh IGFBP7 (11715501_s_at) / RFU REEP3 (11722064_at) / Fold change /veh REEP3 (11722064_at) / RFU IGLL1 (11728026_x_at) / Fold change /veh IGLL1 (11728026_x_at): dose or concentration left out as unconfirmed
Conditions: ProbeSet 11725901_x_at; LIST B

Nc1ccc(-c2cccs2)cc1NC(=O)c1ccc2c(c1)cc(C1CC1)n2CCN1CCOCC1 [ACY-1035]
Fold change vs veh, RWDD3: 0.90
